In patent US20110045103A1, “METHODS FOR TREATING AIDS” (priority 2009, published 2011):

What was measured:
[1] = test system: human immunodeficiency virus (HIV) Type I, strain HTLV-IIIB; test: Virucidal efficacy assay: virus suspension exposed to test composition, then titered by infectivity (CPE) in MT-2 cells; assay type: cell-based, HIV Type 1
Protocol: Composition Tested: A 20 mL vial of ammonium chloride (100 mEq/5 mL) was dissolved into a 1 liter bag of 0.9% sodium chloride injection USP (9 g/L sodium chloride; osmolarity of 308 mOsmol/L; 154 mEq/L sodium; 154 mEq/L chloride). The contents of the bag were transferred to a sterile glass bottle. The solution was equilibrated to room temperature prior to use.
Virus: human immunodeficiency virus (HIV) Type I, strain HTLV-IIIB, was obtained from Advanced Biotechnologies, Inc., Columbia, Md. Stock virus was prepared by collecting the supernatant culture fluid from infected culture cells. The cells were disrupted and cell debris removed by centrifugation at approximately 2200 RPM for ten minutes at room temperature. The supernatant was removed, aliquoted, and the high titer stock virus was stored at ≦−70° C. until the day of use. On the day of use, an aliquot of stock virus was removed, thawed, and maintained at a refrigerated temperature until used in the assay. The stock virus culture was adjusted to contain 5% fetal bovine serum as the organic soil lead.
(§1) Test Cultures: MT-2 cells (human T-cell leukemia cells) were obtained through the AIDS Research and Reference Reagent Program, Division of AIDS, NIAID, NIH from Dr. Douglas Richman. Cultures were maintained and used in suspension in tissue culture labware at 36-38° C. in a humidified atmosphere of 5-7% CO2.
Test Medium: The test medium used for the assay was RPMI 1640 supplemented with 10% (v/v) heat-inactivated fetal bovine serum (FBS). The medium was also supplemented with 2.0 mM L-glutamine and 50 μg/mL gentamicin.
Treatment of Virus Suspension: A 1.80 mL aliquot of the test substance was dispensed into a sterile tube and mixed with a 0.2 mL aliquot of the stock virus suspension. The mixture was vortex mixed for 10 seconds and held for the remainder of the specified exposure time at 37.0° C. The exposure time was ten minutes. Following the exposure time, a 0.1 mL aliquot was removed from the tube and the mixture was immediately titered by 10-fold serial dilution (0.1 mL+0.9 mL test medium) and assayed for the presence of virus in MT-2 cells. To decrease the test substance cytotoxicity, the first dilution was made in FBS with the remaining dilutions in test medium.
Treatment of Virus Control: A 0.2 mL aliquot of stock virus suspension was exposed to a 1.80 mL aliquot of test medium, in lieu of test substance, and treated as previously described. Following the exposure time, a 0.1 mL aliquot was removed from the tube and the mixture was immediately titered by 10-fold serial dilution (0.1 mL+0.9 mL test medium) and assayed for the presence of virus in MT-2 cells. All controls employed the FBS neutralizer as described in the Treatment of Virus Suspension section above. The virus control titer was used as a baseline to compare the percent and log reductions of the test parameter following exposure to the test substance.
Cells in the multiwall culture dishes were inoculated in quadruplicate with 0.2 mL of the dilutions prepared from test and control groups. Uninfected indicator cell cultures (cell controls) were inoculated with test medium alone. The cultures were incubated at 36-38° C. in a humidified atmosphere of 5-7% CO2 in sterile disposable cell culture labware. The cultures were scored periodically for eight days for the absence or presence of CPE, cytotoxicity, and for viability.
(§2) Data analysis: Viral and cytotoxicity titers are expressed as −log 10 of the 50 percent titration endpoint for infectivity (TCID50) or cytotoxicity (TCD50), respectively, as calculated by the method of Spearman Karber: […]
Calculation of Percent (%) Reduction:
Calculation of Log Reduction:
TCID50 of the virus control—TCID50 of the test substance=Log reduction Study Acceptance Criteria: A valid test required the following: (1) that stock virus be recovered from the virus control; (2) that the cell controls be negative for virus; and (3) that negative cultures are viable.

[2] = test system: MT-2 cells (human T-cell leukemia cells); test: Cytotoxicity control of the virucidal assay; assay type: cell-based; settings: ten minute exposure
Protocol: as §1
Cytotoxicity Control: A 1.80 mL aliquot of the test substance was mixed with a 0.2 mL aliquot of test medium containing the BSA organic soil load, in lieu of virus, and treated as previously described. The cytotoxicity control was held for the ten minute exposure time. […] The cytotoxicity of the MT-2 cell cultures was scored at the same time as virus-test substance and virus control cultures. Cytotoxicity was graded on the basis of cell viability as determined microscopically. […]
Cells in the multiwall culture dishes were inoculated in quadruplicate with 0.2 mL of the dilutions prepared from test and control groups. […] The cultures were scored periodically for eight days for the absence or presence of CPE, cytotoxicity, and for viability.
as §2

[3] = ten minute exposure at 37° C., 5% fetal bovine serum, compared to virus control

## Cl.N [Ammonium Chloride, ammonium chloride]
[1]; dilution 10^-2, after ten minute exposure
  Presence of test virus, four cultures: + + + +
[1]; dilution 10^-3, after ten minute exposure
  Presence of test virus, four cultures: + + + +
[1]; dilution 10^-4, after ten minute exposure
  Presence of test virus, four cultures: + + + +
[1]; [3]
  Log10 Reduction in viral titer: 1.0 Log10
  Percent Reduction in viral titer: 90.0%
[1]; ten minute exposure at 37° C., 5% fetal bovine serum, compared to virus control, listed as ammonium chloride
  Percent Reduction in viral titer: 90%
[1]; ten minute exposure at 37° C., virus control titer 6.0 log 10
  test virus infectivity detected in the virus-test substance mixture: 5.0 log 10
[2]
  Test substance cytotoxicity (not observed at any dilution tested): ≤ 1.5 log 10
